Experimental data taken from patent US6737383B1, “Herbicidal oxadiazolidines” (priority 1999, dated 2004).

Columns and labels:
duck salad = assay: Test B flood test duck salad; format: in vivo, Heteranthera limosa
Method in brief: (§1)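 Read-out is a visual response score from 0 (no effect) to 10 (complete control), assigned by comparison with untreated controls. Treatment was applied at the 2-leaf stage, and plants stayed in the greenhouse for twelve to sixteen days before scoring.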

rice = assay: Test B flood test rice; format: in vivo, Oryza sativa
Method in brief: as §1

bamyardgrass = assay: Test B flood test barnyardgrass; format: in vivo, Echinochloa crus-galli
Method in brief: as §1

smallflower flatsedge = assay: Test B flood test smallflower flatsedge; format: in vivo, Cyperus difformis
Method in brief: as §1

[1] = Postemergence, Rate 62 g/ha, scale 0 to 10, 0 is no effect, 10 is complete control
[2] = Rate 125 g/ha, Postemergence section (flood test species), scale 0 to 10, 0 no effect, 10 complete control
[3] = Rate 500 g/ha, listed under Postemergence (flood test species), scale 0 to 10, 0 no effect, 10 complete control
[4] = flood test, listed under Postemergence, Rate 250 g/ha, scale 0 to 10, 0 no effect, 10 complete control
[5] = Rate 62 g/ha, flood test species, Pre-emergence, visual evaluation after twelve to sixteen days
[6] = Rate 125 g/ha, Pre-emergence, flood test species, scale 0 to 10 where 0 is no effect and 10 is complete control
[7] = Rate 250 g/ha, Pre-emergence, flood-test species, scale 0 to 10, 0 is no effect, 10 is complete control
[8] = Rate 500 g/ha, Pre-emergence, flood test species, scale 0 to 10 (0 no effect, 10 complete control)

CCN(CC)C(=O)n1oc(=O)n(Cc2ccccc2C)c1=O [Compound 84]
0: Ducksalad plant response rating (duck salad; [1]) | Ducksalad plant response rating (duck salad; [2]) | Ducksalad plant response rating (duck salad; [3]) | Ducksalad plant response rating (duck salad; [4]) | Rice plant response rating (rice; [1]) | Rice plant response rating (rice; [2]) | Rice plant response rating (rice; [3]) | Rice plant response rating (rice; [4]) | Barnyardgrass plant response rating (bamyardgrass; [1]) | Barnyardgrass plant response rating (bamyardgrass; [2]) | Barnyardgrass plant response rating (bamyardgrass; [3]) | Barnyardgrass plant response rating (bamyardgrass; [4]) | S. Flatsedge plant response rating (smallflower flatsedge; [1]) | S. Flatsedge plant response rating (smallflower flatsedge; [2]) | S. Flatsedge plant response rating (smallflower flatsedge; [3]) | S. Flatsedge plant response rating (smallflower flatsedge; [4])

CC(C)N(C(=O)n1oc(=O)n(Cc2cccnc2)c1=O)c1ccc(F)cc1 [Compound 366]
0: Plant response rating, Ducksalad (0 to 10 scale, 0 is no effect, 10 is complete control) (duck salad; [5]) | Ducksalad plant response rating (duck salad; [6]) | Ducksalad plant response rating (duck salad; [7]) | Ducksalad plant response rating (duck salad; [8]) | Plant response rating, Rice (0 to 10 scale, 0 is no effect, 10 is complete control) (rice; [5]) | Rice plant response rating (rice; [6]) | Rice plant response rating (rice; [7]) | Rice plant response rating (rice; [8]) | Plant response rating, Barnyardgrass (0 to 10 scale, 0 is no effect, 10 is complete control) (bamyardgrass; [5]) | Barnyardgrass plant response rating (bamyardgrass; [6]) | Barnyardgrass plant response rating (bamyardgrass; [7]) | Barnyardgrass plant response rating (bamyardgrass; [8]) | Plant response rating, S. Flatsedge (0 to 10 scale, 0 is no effect, 10 is complete control) (smallflower flatsedge; [5]) | S. Flatsedge plant response rating (smallflower flatsedge; [6]) | S. Flatsedge plant response rating (smallflower flatsedge; [7]) | S. Flatsedge plant response rating (smallflower flatsedge; [8])
